Measured values published in patent publication US12171740B2, “Compositions and methods for treating allergic inflammatory conditions” (CHILDREN'S HOSPITAL MEDICAL CENTER, priority 2016, dated 2024).
Entries after “also recorded” stand apart in the source; their conditions may differ. Each block holds one molecule with its values, some of them ahead of it.

Experiments:
[1] = test system: SPINK7-depleted EPC2 cells; test: H&E staining of SPINK7-depleted EPC2 cells after ALI differentiation (epithelial integrity); type: cell-based, human; conditions: ALI differentiation Day 14
Description: (§1) FIG. 12A is a bar graph showing FPKM values of uPA in the esophagus of EoE patients and controls. FIG. 12B is a bar graph showing analysis of the uPA proteolytic activity (active units—AU) in esophageal biopsies from 6 normal and 6 EoE patients. […] FIG. 12D is a bar graph showing quantification of trypsin-like activity in supernatants derived from NSC or SPINK7-depleted EPC2 cells that were treated with A1AT or a vehicle following ALI differentiation. FIG. 12E are electrical resistance measurements of NSC or SPINK7-depleted EPC2 cells that were treated with A1AT or a vehicle during ALI differentiation (Day 7). FIG. 12F are H&E staining images of NSC or SPINK7-depleted EPC2 cells that were treated with A1AT or a vehicle after ALI differentiation (Day 14)-add. FIG. 12G are images of co-immunofluorescence staining of E-cadherin and Filaggrin of NSC or SPINK7-depleted EPC2 cells that were treated with A1AT or a vehicle following ALI differentiation.
(§2) To extend the potential benefit of A1AT, its ability to restore the epithelial changes induced by SPINK7 loss was […]. […] Consistent with these findings, A1AT administration increased filaggrin expression (FIG. 12G)

Filaggrin = test: Co-immunofluorescence staining of filaggrin in SPINK7-depleted EPC2 cells; type: cell-based, human; conditions: following ALI differentiation
Description: as §1, §2

[2] = test system: SPINK7-depleted EPC2 cells; test: Barrier function (electrical resistance) of SPINK7-depleted EPC2 cells during ALI differentiation; type: cell-based, human; conditions: treated with A1AT during ALI differentiation, Day 7
Description: as §1
Paracellular and transcellular permeability of the ALI cultured cells were analyzed. […] Transepithelial electrical resistance (A) was measured from NSC and SPINK7-depleted EPC2 cells measured at day 7 and 8 during ALI differentiation (data not shown; data were representative of four experiments performed in triplicate and are represented as the mean±Sd). […]

[3] = test system: serine proteinases with trypsin-like activity; test: Trypsin-like / proteolytic activity in supernatants of SPINK7-depleted EPC2 cells; type: cell-based, human; conditions: following ALI differentiation
Description: (§3) FIG. 10A is a bar graph showing quantification of uPA activity in supernatants derived from (NSC) or SPINK7-depleted EPC2 cells following during ALI differentiation (day 7-9). FIG. 10B is a bar graph showing quantification of the activity of serine proteinases with trypsin-like activity in supernatants derived from (NSC) or SPINK7-depleted EPC2 cells and primary esophageal cells following ALI differentiation. Proteinase activity in the supernatants is calculated as nM concentrations according to standard dilutions of recombinant hKLK5. In vitro activity assays of KLK5 (FIG. 10C) KLK7 (FIG. 10D) and KLK11 (FIG. 10E) in the presence of the indicated concentrations of SPINK7. Data are represented as the mean±s.e.m.
FIG. 12A is a bar graph showing FPKM values of uPA in the esophagus of EoE patients and controls. FIG. 12B is a bar graph showing analysis of the uPA proteolytic activity (active units—AU) in esophageal biopsies from 6 normal and 6 EoE patients. […] FIG. 12D is a bar graph showing quantification of trypsin-like activity in supernatants derived from NSC or SPINK7-depleted EPC2 cells that were treated with A1AT or a vehicle following ALI differentiation. […]
The known SPINK7 target uPA (Cheng, X., Lu, S. H. & Cui, Y. Cancer letters 290, 87-95 (2010), and Huang, G. et al. Carcinogenesis 28, 2274-2281(2007)) was analyzed. […]

KLK5 [4] = target: T1, KLK5 (Homo sapiens, UniProt Q9Y337); test: Inhibition of KLK5 by organic compounds (dose response); type: biochemical
T1 sequence (Q9Y337 23-293): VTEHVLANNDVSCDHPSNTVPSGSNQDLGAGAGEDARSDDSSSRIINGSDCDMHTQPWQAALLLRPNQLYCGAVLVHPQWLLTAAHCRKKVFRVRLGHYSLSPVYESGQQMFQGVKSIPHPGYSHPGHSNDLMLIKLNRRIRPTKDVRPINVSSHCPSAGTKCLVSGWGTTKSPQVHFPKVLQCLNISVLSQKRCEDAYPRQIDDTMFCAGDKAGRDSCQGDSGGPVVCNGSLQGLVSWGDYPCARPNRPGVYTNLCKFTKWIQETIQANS
Description: FIGS. 14A-14B show the effect of organic compounds on KLK5 activity. FIG. 14A is a dose response curve for 3-(3-chlorophenyl) carboxy-7-hydroxymethyl coumarin. FIG. 14B is a dose response curve for 3-carboxy-7-hydroxymethyl coumarin.
Two organic compounds were tested for their inhibition of KLK5.

KLK11 = target: T2, KLK11 (Homo sapiens, UniProt Q9UBX7); test: In vitro KLK11 activity assay in the presence of SPINK7; type: biochemical
T2 sequence (Q9UBX7 54-282): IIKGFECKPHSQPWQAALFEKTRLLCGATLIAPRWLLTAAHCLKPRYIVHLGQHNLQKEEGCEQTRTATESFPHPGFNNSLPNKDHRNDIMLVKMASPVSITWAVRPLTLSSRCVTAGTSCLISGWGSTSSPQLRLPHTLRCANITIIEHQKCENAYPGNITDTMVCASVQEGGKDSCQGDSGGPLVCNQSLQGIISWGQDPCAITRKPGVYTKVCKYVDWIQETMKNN
Description: as §3

KLK5 [5] = target: T1, KLK5; test: In vitro KLK5 activity assay in the presence of SPINK7; type: biochemical
Description: as §3

KLK7 = KLK7 (Homo sapiens, UniProt P49862); test: In vitro KLK7 activity assay in the presence of SPINK7; type: biochemical
Chain of KLK7 (P49862 30-253): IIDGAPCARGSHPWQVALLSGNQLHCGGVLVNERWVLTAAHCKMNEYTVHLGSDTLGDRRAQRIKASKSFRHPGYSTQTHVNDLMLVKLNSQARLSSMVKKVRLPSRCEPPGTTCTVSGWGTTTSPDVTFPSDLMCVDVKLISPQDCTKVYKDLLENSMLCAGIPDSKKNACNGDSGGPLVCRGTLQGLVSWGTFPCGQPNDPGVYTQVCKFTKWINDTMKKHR
Description: as §3

uPA = uPA (Homo sapiens, UniProt P00749); test: uPA proteolytic activity inhibition by SPINK7; type: biochemical; conditions: data not shown
Description: The known SPINK7 target uPA (Cheng, X., Lu, S. H. & Cui, Y. Cancer letters 290, 87-95 (2010), and Huang, G. et al. Carcinogenesis 28, 2274-2281(2007)) was analyzed. […] An increased proteolytic activity using the broad trypsin-like activity substrate Val-Pro-Arg (FIG. 10B) was observed.

Molecule: A1AT: serine proteinase inhibitor alpha-1 anti-trypsin, administered to SPINK7-silenced cells [Compound A1AT]
epithelial integrity (inter-cellular spaces) [1]: decreased inter-cellular spaces
filaggrin expression (Filaggrin): increased
barrier function (electrical resistance) [2]: dose-dependent ability to improve barrier function
trypsin-like activity of supernatant of SPINK7 silenced cells [3]: inhibited

IC50 (KLK5 [4]): 52000 ± 12000 nM
type of KLK5 inhibition (reversibility) (KLK5 [4]): non reversible inhibitors
Molecule: 3-(3-chlorophenyl) carboxy-7-hydroxymethyl coumarin [Compound I]

IC50 (KLK5 [4]): 83 ± 8 nM
type of KLK5 inhibition (reversibility) (KLK5 [4]): non reversible inhibitors
Molecule: O=C(O)c1cc2ccc(CO)cc2oc1=O [Compound II, 3-carboxy-7-hydroxymethyl coumarin]

inhibition of KLK11 (KLK11): did not inhibit
inhibition of KLK5 proteolytic activity (KLK5 [5]; in vitro): inhibited
Ki (KLK5 [5]; mean±SD, dose-dependent, read-out: Ki, inhibition of KLK5 proteolytic activity): 132 ± 108 nM
inhibition of KLK7 (KLK7): did not inhibit; also recorded: not KLK7
inhibition of uPA proteolytic activity (uPA): directly inhibited
B1: SPINK7: serine proteinase inhibitor kazal-type 7 protein, tested in vitro against KLK5, KLK7, KLK11 and uPA (protein, UniProt P58062 20-85, looked up)
Serine protease inhibitor …: SEAASLSPKKVDCSIYKKYPVVAIPCPITYLPVCGSDYITYGNECHLCTESLKSNGRVQFLHDGSC
